In patent US20240246942A1, “KINASE INHIBITORS FOR THE TREATMENT OF NEURODEGENERATIVE DISEASES” (priority 2020, published 2024):
Where two headings read alike, the source gives them in different places.

Legend:
Assay in all cases: biochemical
[1] = molecular target: T1, panel of 374 wild-type kinases (Homo sapiens, UniProt Q9NWZ3); settings: read-out: % Enzyme Activity (relative to DMSO controls), IRAK4
T1 construct: purchased Reaction Biology Corporation
T1 sequence (Q9NWZ3 1-460): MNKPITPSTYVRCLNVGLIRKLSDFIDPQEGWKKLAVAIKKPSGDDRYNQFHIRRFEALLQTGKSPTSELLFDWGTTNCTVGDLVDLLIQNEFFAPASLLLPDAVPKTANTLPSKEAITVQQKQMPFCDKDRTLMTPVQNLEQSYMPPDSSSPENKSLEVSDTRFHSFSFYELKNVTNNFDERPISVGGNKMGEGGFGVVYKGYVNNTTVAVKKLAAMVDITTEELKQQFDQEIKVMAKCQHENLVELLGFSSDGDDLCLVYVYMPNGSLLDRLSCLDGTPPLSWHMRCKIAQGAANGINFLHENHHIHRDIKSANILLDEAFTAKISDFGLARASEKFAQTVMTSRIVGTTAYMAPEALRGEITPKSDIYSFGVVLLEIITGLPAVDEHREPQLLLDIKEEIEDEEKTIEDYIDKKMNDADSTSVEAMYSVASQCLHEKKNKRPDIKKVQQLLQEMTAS

[2] = molecular target: T2, panel of 374 wild-type kinases (Homo sapiens, UniProt Q16620); settings: read-out: % Enzyme Activity (relative to DMSO controls), kinase TRKB
T2 construct: purchased Reaction Biology Corporation

[3] = molecular target: T3, panel of 374 wild-type kinases (Homo sapiens, UniProt Q8TDX7); settings: read-out: % Enzyme Activity (relative to DMSO controls), NEK7
T3 construct: purchased Reaction Biology Corporation

[4] = molecular target: T4, panel of 374 wild-type kinases (Homo sapiens, UniProt P08581); settings: read-out: % Enzyme Activity (relative to DMSO controls), c-MET
T4 construct: purchased Reaction Biology Corporation

[5] = molecular target: T5, panel of 374 wild-type kinases (Homo sapiens, UniProt Q9UM73); settings: read-out: % Enzyme Activity (relative to DMSO controls), ALK
T5 construct: purchased Reaction Biology Corporation

[6] = molecular target: T6, panel of 374 wild-type kinases (Homo sapiens, UniProt P06493)
T6 construct: purchased Reaction Biology Corporation

[7] = molecular target: T7, panel of 374 wild-type kinases (Homo sapiens, UniProt Q8IVT5); settings: read-out: % Enzyme Activity (relative to DMSO controls), KSR1
T7 construct: purchased Reaction Biology Corporation
T7 sequence (Q8IVT5 1-923): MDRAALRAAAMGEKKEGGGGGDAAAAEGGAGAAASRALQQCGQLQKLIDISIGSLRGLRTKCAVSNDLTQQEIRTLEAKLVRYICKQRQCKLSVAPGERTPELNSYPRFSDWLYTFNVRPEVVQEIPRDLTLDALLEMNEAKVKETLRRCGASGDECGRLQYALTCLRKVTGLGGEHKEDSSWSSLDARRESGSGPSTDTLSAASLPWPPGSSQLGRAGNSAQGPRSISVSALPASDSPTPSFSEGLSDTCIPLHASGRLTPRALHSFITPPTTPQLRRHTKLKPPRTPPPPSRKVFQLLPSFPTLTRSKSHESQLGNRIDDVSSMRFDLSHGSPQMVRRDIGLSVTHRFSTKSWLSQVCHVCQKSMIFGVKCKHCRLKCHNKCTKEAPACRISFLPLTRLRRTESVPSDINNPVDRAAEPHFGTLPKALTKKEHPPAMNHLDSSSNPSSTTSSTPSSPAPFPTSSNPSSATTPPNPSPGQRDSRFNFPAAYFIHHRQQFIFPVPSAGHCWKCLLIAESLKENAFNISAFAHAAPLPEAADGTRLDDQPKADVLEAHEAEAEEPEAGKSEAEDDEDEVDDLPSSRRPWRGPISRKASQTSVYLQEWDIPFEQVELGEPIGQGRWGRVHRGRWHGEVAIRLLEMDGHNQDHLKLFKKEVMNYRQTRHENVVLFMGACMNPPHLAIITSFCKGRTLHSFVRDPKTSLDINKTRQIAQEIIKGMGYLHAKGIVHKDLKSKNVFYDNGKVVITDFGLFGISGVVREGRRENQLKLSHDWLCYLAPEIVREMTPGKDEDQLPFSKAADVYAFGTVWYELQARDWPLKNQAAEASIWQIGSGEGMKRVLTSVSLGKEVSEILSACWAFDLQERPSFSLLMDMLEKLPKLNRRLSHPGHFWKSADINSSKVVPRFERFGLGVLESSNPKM

[8] = molecular target: T8, panel of 374 wild-type kinases (Homo sapiens, UniProt P49759); settings: read-out: % Enzyme Activity (relative to DMSO controls), CLK1
T8 construct: purchased Reaction Biology Corporation

[9] = molecular target: T9, panel of 374 wild-type kinases (Homo sapiens, UniProt P48729); settings: read-out: % Enzyme Activity (relative to DMSO controls), CK1a1
T9 construct: purchased Reaction Biology Corporation

[10] = molecular target: T10, panel of 374 wild-type kinases (Homo sapiens, UniProt P08069); settings: read-out: % Enzyme Activity (relative to DMSO controls), IGF1R
T10 construct: purchased Reaction Biology Corporation

[11] = molecular target: T11, panel of 374 wild-type kinases (Homo sapiens, UniProt Q8IW41); settings: read-out: % Enzyme Activity (relative to DMSO controls), MAPKAPK5/PRAK
T11 construct: purchased Reaction Biology Corporation
T11 sequence (Q8IW41 1-473): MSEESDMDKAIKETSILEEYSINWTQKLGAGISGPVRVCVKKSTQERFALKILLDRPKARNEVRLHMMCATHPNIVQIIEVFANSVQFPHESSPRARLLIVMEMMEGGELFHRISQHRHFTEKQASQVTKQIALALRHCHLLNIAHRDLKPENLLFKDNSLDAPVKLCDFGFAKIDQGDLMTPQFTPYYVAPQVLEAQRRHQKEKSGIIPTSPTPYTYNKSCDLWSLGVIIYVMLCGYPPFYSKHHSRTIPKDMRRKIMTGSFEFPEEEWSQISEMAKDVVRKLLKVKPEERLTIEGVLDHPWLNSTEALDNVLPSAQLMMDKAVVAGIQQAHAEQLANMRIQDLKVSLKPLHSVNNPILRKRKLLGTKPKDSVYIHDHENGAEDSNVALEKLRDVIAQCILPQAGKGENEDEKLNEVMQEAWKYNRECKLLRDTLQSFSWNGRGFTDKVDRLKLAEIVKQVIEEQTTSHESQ

[12] = read-out: % Enzyme Activity (relative to DMSO controls), CDK1/cyclin A
[13] = read-out: % Enzyme Activity (relative to DMSO controls), CDK1/cyclin B
[14] = read-out: % Enzyme Activity (relative to DMSO controls), CDK1/cyclin E

T2 sequence (Q16620 32-822): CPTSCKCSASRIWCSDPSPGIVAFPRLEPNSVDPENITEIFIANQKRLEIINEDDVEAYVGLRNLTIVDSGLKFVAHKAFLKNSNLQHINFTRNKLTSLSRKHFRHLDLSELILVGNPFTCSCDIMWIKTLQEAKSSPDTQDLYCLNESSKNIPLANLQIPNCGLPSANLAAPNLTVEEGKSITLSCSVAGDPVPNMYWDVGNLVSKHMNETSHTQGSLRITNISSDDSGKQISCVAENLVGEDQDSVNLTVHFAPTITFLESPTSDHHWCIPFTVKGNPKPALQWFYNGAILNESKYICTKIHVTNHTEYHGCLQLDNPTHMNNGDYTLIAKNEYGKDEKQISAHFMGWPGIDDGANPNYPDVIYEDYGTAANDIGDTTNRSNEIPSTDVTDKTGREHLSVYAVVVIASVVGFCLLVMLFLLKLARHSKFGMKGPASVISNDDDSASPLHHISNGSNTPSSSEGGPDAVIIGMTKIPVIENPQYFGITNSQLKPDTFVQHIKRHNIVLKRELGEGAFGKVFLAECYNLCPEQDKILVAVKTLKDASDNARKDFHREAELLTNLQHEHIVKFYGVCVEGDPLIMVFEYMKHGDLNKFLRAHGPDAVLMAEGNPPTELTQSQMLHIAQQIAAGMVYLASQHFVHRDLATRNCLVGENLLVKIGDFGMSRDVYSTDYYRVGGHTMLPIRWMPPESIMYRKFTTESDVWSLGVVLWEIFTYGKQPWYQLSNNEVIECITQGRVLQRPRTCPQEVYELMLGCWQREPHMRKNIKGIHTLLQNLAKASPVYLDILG
T3 sequence (Q8TDX7 whole entry): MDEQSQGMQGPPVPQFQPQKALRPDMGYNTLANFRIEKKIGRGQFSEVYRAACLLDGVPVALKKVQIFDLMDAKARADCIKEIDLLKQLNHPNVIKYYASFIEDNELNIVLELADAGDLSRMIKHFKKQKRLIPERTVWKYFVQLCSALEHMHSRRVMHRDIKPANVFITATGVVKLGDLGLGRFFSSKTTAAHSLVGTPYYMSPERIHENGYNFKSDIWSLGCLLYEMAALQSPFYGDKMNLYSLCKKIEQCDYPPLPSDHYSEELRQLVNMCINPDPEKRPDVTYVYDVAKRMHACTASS
T5 sequence (Q9UM73 19-1620): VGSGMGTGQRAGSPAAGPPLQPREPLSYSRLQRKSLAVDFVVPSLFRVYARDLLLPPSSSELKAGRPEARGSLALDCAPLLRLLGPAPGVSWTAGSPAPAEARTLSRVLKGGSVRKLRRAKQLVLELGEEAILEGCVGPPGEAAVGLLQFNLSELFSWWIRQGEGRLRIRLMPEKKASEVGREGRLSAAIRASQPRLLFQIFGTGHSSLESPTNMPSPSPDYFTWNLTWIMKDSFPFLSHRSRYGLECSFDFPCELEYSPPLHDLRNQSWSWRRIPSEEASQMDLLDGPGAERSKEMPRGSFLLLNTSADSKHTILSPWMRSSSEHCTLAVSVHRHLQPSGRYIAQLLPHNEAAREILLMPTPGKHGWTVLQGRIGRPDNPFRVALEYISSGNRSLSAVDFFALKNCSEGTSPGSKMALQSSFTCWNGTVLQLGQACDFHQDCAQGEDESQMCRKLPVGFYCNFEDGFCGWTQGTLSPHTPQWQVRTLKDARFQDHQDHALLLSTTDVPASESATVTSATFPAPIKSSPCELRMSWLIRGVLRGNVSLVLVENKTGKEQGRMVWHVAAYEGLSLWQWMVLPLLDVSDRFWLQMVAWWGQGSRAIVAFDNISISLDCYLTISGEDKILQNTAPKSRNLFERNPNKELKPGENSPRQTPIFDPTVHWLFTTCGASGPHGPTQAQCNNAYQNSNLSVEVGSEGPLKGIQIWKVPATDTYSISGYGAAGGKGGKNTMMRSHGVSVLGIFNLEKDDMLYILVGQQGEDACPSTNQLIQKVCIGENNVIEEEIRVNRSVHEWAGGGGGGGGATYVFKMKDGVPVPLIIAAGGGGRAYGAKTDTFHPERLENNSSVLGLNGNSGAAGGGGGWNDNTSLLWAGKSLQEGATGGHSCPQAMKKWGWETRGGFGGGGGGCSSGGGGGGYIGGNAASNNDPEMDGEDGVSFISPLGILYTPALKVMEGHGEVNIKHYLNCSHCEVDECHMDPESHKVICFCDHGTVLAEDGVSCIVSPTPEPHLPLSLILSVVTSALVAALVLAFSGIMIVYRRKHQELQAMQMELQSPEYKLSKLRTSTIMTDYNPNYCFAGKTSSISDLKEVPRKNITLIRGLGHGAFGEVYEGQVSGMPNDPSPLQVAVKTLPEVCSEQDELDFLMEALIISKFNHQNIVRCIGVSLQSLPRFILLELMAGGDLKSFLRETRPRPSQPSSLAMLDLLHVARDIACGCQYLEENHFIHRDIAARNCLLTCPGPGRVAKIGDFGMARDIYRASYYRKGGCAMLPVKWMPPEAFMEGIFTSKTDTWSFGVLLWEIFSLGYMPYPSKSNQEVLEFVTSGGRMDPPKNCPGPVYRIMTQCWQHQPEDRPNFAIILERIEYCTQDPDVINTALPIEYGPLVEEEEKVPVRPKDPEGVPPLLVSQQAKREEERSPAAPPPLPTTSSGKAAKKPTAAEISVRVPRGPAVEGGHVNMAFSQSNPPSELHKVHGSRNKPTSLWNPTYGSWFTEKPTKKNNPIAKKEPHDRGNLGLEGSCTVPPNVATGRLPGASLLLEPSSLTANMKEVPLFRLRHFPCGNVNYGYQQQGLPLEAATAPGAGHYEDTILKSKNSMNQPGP
T8 sequence (P49759 whole entry): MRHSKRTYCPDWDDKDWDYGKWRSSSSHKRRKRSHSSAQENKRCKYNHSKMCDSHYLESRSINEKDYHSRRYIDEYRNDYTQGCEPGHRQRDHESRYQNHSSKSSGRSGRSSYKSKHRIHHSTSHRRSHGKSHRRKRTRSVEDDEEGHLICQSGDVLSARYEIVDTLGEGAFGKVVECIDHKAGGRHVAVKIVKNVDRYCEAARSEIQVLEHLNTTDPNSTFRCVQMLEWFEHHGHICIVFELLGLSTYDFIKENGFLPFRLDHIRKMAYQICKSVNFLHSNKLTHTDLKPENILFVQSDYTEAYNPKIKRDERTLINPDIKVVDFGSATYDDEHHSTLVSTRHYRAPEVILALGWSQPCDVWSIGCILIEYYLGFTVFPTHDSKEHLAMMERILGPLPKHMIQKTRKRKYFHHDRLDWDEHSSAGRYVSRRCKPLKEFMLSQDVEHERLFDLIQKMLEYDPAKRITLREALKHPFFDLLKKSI
T6 sequence (P06493 whole entry): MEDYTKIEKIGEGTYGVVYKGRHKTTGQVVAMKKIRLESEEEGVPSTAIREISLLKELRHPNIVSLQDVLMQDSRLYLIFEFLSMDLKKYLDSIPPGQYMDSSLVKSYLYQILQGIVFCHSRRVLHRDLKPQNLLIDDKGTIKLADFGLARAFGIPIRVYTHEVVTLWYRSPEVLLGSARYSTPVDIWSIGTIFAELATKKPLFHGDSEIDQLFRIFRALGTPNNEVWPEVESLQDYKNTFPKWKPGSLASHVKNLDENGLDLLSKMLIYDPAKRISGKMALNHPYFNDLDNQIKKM
T9 sequence (P48729 whole entry): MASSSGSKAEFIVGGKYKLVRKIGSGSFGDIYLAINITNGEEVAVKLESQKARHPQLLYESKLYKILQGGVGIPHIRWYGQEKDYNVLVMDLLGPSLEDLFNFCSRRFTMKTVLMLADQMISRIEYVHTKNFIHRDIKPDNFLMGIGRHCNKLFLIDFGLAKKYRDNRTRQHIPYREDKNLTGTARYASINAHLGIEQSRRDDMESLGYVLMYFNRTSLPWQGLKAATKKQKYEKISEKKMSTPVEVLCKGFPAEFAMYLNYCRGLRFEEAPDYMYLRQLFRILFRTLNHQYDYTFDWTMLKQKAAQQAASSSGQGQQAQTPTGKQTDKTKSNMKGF

SMILES | remaining activity at 5 µM [1] | remaining activity at 5 µM [2] | remaining activity at 5 µM [3] | remaining activity at 5 µM [4] | remaining activity at 5 µM [5] | remaining activity at 5 µM [6, 12] | remaining activity at 5 µM [6, 13] | remaining activity at 5 µM [6, 14] | remaining activity at 5 µM [7] | remaining activity at 5 µM [8] | remaining activity at 5 µM [9] | remaining activity at 5 µM [10] | remaining activity at 5 µM [11] | other results
O=C(Nc1cnn(-c2csc(C(=O)NC3COC3)c2)c1)Nc1c(F)cccc1Cl [Compound 25, 4-(4-(3-(2-chloro-6-fluorophenyl)ureido)-1H-pyrazol-1-yl)-N-(oxetan-3-yl)thiophene-2-carboxamide] | 97.8% | 91.5% | 88.1% | 86.1% | 89.2% | 86.3% | 105% | 98.4% | 105% | 74.9% | 76.6% | 94.9% | 99.7% | 
O=C(Nc1cnn(-c2csc(C(=O)NC3COC3)c2)c1)Nc1ccccc1Cl [Compound 17, 4-(4-(3-(2-chlorophenyl)ureido)-1H-pyrazol-1-yl)-N-(oxetan-3-yl)thiophene-2-carboxamide] | 92.1% | 84.2% | 102% | 102% | 101% | 95.5% | 92.6% | 94.7% | 101% | 81% | 98.5% | 95.8% | 92.8% | 
Cc1sc(C(=O)NC2COC2)cc1-n1cc(NC(=O)Nc2c(F)cccc2Cl)cn1 [Compound 27, 4-(4-(3-(2-chloro-6-fluorophenyl)ureido)-1H-pyrazol-1-yl)-5-methyl-N-(oxetan-3-yl)thiophene-2-carboxamide] |  |  |  |  |  |  |  |  |  |  |  |  |  | remaining activity at 10 µM ([1]; 10 uM): 103%; remaining activity at 10 µM ([2]; 10 uM): 92.4%; remaining activity at 10 µM ([3]; 10 uM): 100%; remaining activity at 10 µM ([4]; 10 uM): 77%; remaining activity at 10 µM ([5]; 10 uM): 100%; remaining activity at 10 µM [6, 12]: 105%; remaining activity at 10 µM [6, 13]: 92.7%; remaining activity at 10 µM [6, 14]: 100%; remaining activity at 10 µM ([7]; 10 uM): 103%; remaining activity at 10 µM ([8]; 10 uM): 98.4%; remaining activity at 10 µM ([9]; 10 uM): 81.1%; remaining activity at 10 µM ([10]; 10 uM): 102%; remaining activity at 10 µM ([11]; 10 uM): 96.5%
